One assay has as its system HCV replicon genotype 1a. Briefly: HCV replicon assay, genotype 1a (cell ELISA for NS3/4A). The class given is cell-based. As to conditions: Hepatitis C virus, 96 h, read-out: 1a IC50 (nM). The procedure:
(§1) Measurement of inhibition by compounds was performed using the HCV replicon system. Several different replicons encoding different HCV genotypes or mutations were used. In addition, potency measurements were made using different formats of the replicon assay, including different ways of measurements and different plating formats. See Jan M. Vrolijk et al., A replicons-based bioassay for the measurement of interferons in patients with chronic hepatitis C, 110 J. V[…] 201 (2003); Steven S. Carroll et al., Inhibition of Hepatitis C Virus RNA Replication by 2′-Modified Nucleoside Analogs, 278(14) J. BIOLOGICAL CHEMISTRY 11979 (2003). However, the underlying principles are common to all of these determinations, and are outlined below.
(§2) Stable neomycin phosphotransferase encoding replicons-harboring cell lines were used, so all cell lines were maintained under G418 selection prior to the assay. Potency was determined using a cell ELISA assay with an antibody to the replicons encoded NS3/4a protease. See Caterina Trozzi et al., In Vitro Selection and Characterization of Hepatitis C Virus Serine Protease Variants Resistant to an Active-Site Peptide Inhibitor, 77(6) J. Virol. 3669 (2003). To initiate an assay, replicon cells were plated in the presence of a dilution series of test compound in the absence of G418. Typically, the assays were performed in a 96-well plate formate for manual operation, or a 384-well plate format for automated assay. Replicon cells and compound were incubated for 96 hours. At the end of the assay, cells were washed free of media and compound, and the cells were then lysed. RNA was quantified indirectly through detection of replicon-encoded NS3/4A protein levels, through an ELISA-based assay with an antibody specific for NS3/4A. IC50 determinations were calculated as a percentage of a DMSO control by fitting the data to a four-parameter fit function and the data obtained is provided in the table below.
(§3) Data for selected compounds of the present invention was obtained for genotypes 1a and 1b using this method and is provided in the table below: […]

A further assay deals with HCV replicon genotype 1b. Briefly: HCV replicon assay, genotype 1b (cell ELISA for NS3/4A). In kind it is cell-based. As to conditions: Hepatitis C virus, 96 h, read-out: 1b IC50 (nM). The procedure: as §1, §2, §3
On the technique in general: A replicon is a self-replicating genome or part of one, used to study replication in cells.

The term IC50 denotes the point on the concentration scale where inhibition reaches its midpoint. Take `CNC(=O)c1c(-c2ccc(F)cc2)oc2cc(N(C)S(C)(=O)=O)c(-c3ccc(O)c(-c4cc5ccccn5n4)n3)cc12` [Compound 255]: the 50% inhibitory concentration (IC50) in the assay with HCV replicon genotype 1a worked out at 1450 nM; in the assay on HCV replicon genotype 1b it was 104 nM.

In the case of `CNC(=O)c1c(-c2ccc(F)cc2)oc2cc(N(C)S(C)(=O)=O)c(-c3cncc(-c4ccc5cc(C(F)(F)F)cnc5n4)c3)cc12` [Compound 180], the half-maximal inhibitory concentration (IC50) in the assay on HCV replicon genotype 1a was 5.4 nM; with HCV replicon genotype 1b it was 2.3 nM.

Regarding `CNC(=O)c1c(-c2ccc(F)cc2)oc2cc(N(C)S(C)(=O)=O)c(-c3cc(-c4cc5c(F)cccc5[nH]4)nnc3C)cc12` [Compound 268], the values for the concentration for half-maximal inhibition (IC50) in the assay on HCV replicon genotype 1a and in the assay on HCV replicon genotype 1b were 5.3 nM and 6.1 nM, respectively.

Take `CNC(=O)c1c(-c2ccc(F)cc2)oc2cc(N(C)S(C)(=O)=O)c(-c3cncc(-c4nc5c(F)cccc5o4)c3)cc12` [Compound 2]: the IC50 in the assay on HCV replicon genotype 1a worked out at 0.3 nM; in the assay on HCV replicon genotype 1b it was 0.8 nM.

Regarding `CNC(=O)c1c(-c2ccc(F)cc2)oc2cc(N(C)S(C)(=O)=O)c(-c3ccnc(-c4nc5c(F)cccc5o4)c3)cc12` [Compound 9], the half-maximal inhibitory concentration (IC50) was 0.6 nM with HCV replicon genotype 1a and 1.3 nM in the assay with HCV replicon genotype 1b.

In the case of `CNC(=O)c1c(-c2ccc(F)cc2)oc2cc(N(C)S(C)(=O)=O)c(-c3cncc(-c4cc5c(F)cccc5[nH]4)n3)cc12` [Compound 121], the IC50 was determined as 0.8 nM in the assay on HCV replicon genotype 1a and 1.2 nM with HCV replicon genotype 1b.

`CNC(=O)c1c(-c2ccc(F)cc2)oc2cc(N(C)S(C)(=O)=O)c(-c3cnc(OC)c(-c4cc5c(C#N)cccc5[nH]4)n3)cc12` [Compound 225]: the figures for the IC50 in the assay on HCV replicon genotype 1a and in the assay with HCV replicon genotype 1b were 4.7 nM and 7 nM, respectively.

`CNC(=O)c1c(-c2ccc(F)cc2)oc2cc(N(C)S(C)(=O)=O)c(-c3cc(N4Cc5cccc(F)c5C4)ncc3OC)cc12` [Compound 294]: the figures for the IC50 in the assay with HCV replicon genotype 1a and in the assay on HCV replicon genotype 1b were 54 nM and 22 nM, respectively.

In the case of `CNC(=O)c1c(-c2ccc(F)cc2)oc2cc(N(C)S(C)(=O)=O)c(-c3cc(-c4cc5ccccc5[nH]4)c(OC)cn3)cc12` [Compound 202], the values for the IC50 in the assay with HCV replicon genotype 1a and in the assay on HCV replicon genotype 1b were 8.4 nM and 7.6 nM, respectively.

Turning to `CNC(=O)c1c(-c2ccc(F)cc2)oc2cc(N(C)S(C)(=O)=O)c(-c3cc(-c4cc5c(F)cccc5[nH]4)cnn3)cc12` [Compound 263], the IC50 in the assay with HCV replicon genotype 1a was 3.2 nM; with HCV replicon genotype 1b, 2.4 nM.

Take `CNC(=O)c1c(-c2ccc(F)cc2)oc2cc(N(C)S(C)(=O)=O)c(-c3ccc(OC)c(-c4cc5ncccc5[nH]4)n3)cc12` [Compound 211]: the IC50 was 8.8 nM with HCV replicon genotype 1a and 2.5 nM with HCV replicon genotype 1b.

On to `CNC(=O)c1c(-c2ccc(F)cc2)oc2cc(N(C)S(C)(=O)=O)c(-c3cnc(OC)c(-c4nc5c(F)cccc5o4)c3)cc12` [Compound 1, 5-(5-(4-fluorobenzo[d]oxazol-2-yl)-6-methoxypyridin-3-yl)-2-(4-fluorophenyl)-N-methyl-6-(N-methylmethylsulfonamido)benzofuran-3-carboxamide], for which the half-inhibitory concentration (IC50) came out at 0.9 nM in the assay on HCV replicon genotype 1a and 0.6 nM in the assay on HCV replicon genotype 1b.

`CNC(=O)c1c(-c2ccc(F)cc2)oc2cc(N(C)S(C)(=O)=O)c(-c3cc(-c4cc5c(C#N)cccc5[nH]4)cnn3)cc12` [Compound 230]: the 50% inhibitory concentration (IC50) turned out to be 1.4 nM in the assay with HCV replicon genotype 1a and 1.9 nM in the assay with HCV replicon genotype 1b.

On to `CNC(=O)c1c(-c2ccc(F)cc2)oc2cc(N(C)S(C)(=O)=O)c(-c3cc(-c4cc5c(F)cccc5[nH]4)nc(N)n3)cc12` [Compound 272], for which the values for the IC50 with HCV replicon genotype 1a and in the assay on HCV replicon genotype 1b were 4.2 nM and 4.4 nM, respectively.

Take `CNC(=O)c1c(-c2ccc(F)cc2)oc2cc(N3CCCC3=O)c(-c3cncc(-c4nc5c(s4)CCCC5(F)F)c3)cc12` [Compound 155, 5-(5-(4,4-difluoro-4,5,6,7-tetrahydrobenzo[d]thiazol-2-yl)pyridin-3-yl)-2-(4-fluorophenyl)-N-methyl-6-(2-oxopyrrolidin-1-yl)benzofuran-3-carboxamide]: the IC50 in the assay on HCV replicon genotype 1a amounted to 2.9 nM; with HCV replicon genotype 1b it was 1 nM.

As for `CNC(=O)c1c(-c2ccc(F)cc2)oc2cc(N(C)S(C)(=O)=O)c(-c3cc(-c4cc5c(F)cccc5[nH]4)ncc3-c3cc4c(F)cccc4[nH]3)cc12` [Compound 290], the IC50 in the assay on HCV replicon genotype 1a is 9.8 nM; with HCV replicon genotype 1b, 10 nM.

Turning to `CNC(=O)c1c(-c2ccc(F)cc2)oc2cc(N(C)S(C)(=O)=O)c(-c3cnnc(-n4ncc5c(F)cccc54)c3)cc12` [Compound 264], the IC50 was 25 nM in the assay with HCV replicon genotype 1a and 10 nM in the assay with HCV replicon genotype 1b.

With `CNC(=O)c1c(-c2ccc(F)cc2)oc2cc(N(C)S(C)(=O)=O)c(-c3cc(-c4cc5c(F)cccc5[nH]4)nnc3OC)cc12` [Compound 223], the concentration for half-maximal inhibition (IC50) with HCV replicon genotype 1a was 2.8 nM; in the assay with HCV replicon genotype 1b, 4.5 nM.

For `CNC(=O)c1c(-c2ccc(F)cc2)oc2cc(N(C)S(C)(=O)=O)c(-c3cnnc(-c4nc5ccccc5s4)c3)cc12` [Compound 287], the IC50 was determined as 3.2 nM in the assay on HCV replicon genotype 1a and 5.1 nM in the assay on HCV replicon genotype 1b.

For the compound `CNC(=O)c1c(-c2ccc(F)cc2)oc2cc(N(C)S(C)(=O)=O)c(-c3cnnc(-c4cc5c(F)cccc5n4CCO)c3)cc12` [Compound 277], the IC50 with HCV replicon genotype 1a amounted to 7.4 nM; in the assay with HCV replicon genotype 1b, 6.7 nM.

Take `CNC(=O)c1c(-c2ccc(F)cc2)oc2cc(N(C)S(C)(=O)=O)c(-c3cnnc(-c4cc5c(OC)cccc5[nH]4)c3)cc12` [Compound 282]: the half-maximal inhibitory concentration (IC50) stood at 3.3 nM with HCV replicon genotype 1a and 1.8 nM in the assay on HCV replicon genotype 1b.

For `CNC(=O)c1c(-c2ccc(F)cc2)oc2cc(N(C)S(C)(=O)=O)c(-c3cnnc(-c4[nH]c5ccccc5c4C)c3)cc12` [Compound 288], the half-inhibitory concentration (IC50) is 75 nM with HCV replicon genotype 1a and 25 nM in the assay on HCV replicon genotype 1b.

Take `CNC(=O)c1c(-c2ccc(F)cc2)oc2cc(N(C)S(C)(=O)=O)c(-c3cc(-c4[nH]c5ccccc5c4C)cnn3)cc12` [Compound 289]: the half-inhibitory concentration (IC50) with HCV replicon genotype 1a stood at 54 nM; in the assay with HCV replicon genotype 1b, 22 nM.

Consider `CNC(=O)c1c(-c2ccc(F)cc2)oc2cc(N(C)S(C)(=O)=O)c(-c3ccc(O)c(-c4cc5c(C#N)nccc5[nH]4)n3)cc12` [Compound 231], for which the IC50 in the assay on HCV replicon genotype 1a was found to be 339 nM; with HCV replicon genotype 1b it was 47 nM.

As to `CNC(=O)c1c(-c2ccc(F)cc2)oc2cc(N(C)S(C)(=O)=O)c(-c3cncc(-c4cc5cccc(F)c5[nH]4)n3)cc12` [Compound 139], the IC50 in the assay with HCV replicon genotype 1a and with HCV replicon genotype 1b was 0.8 nM in each case.

For the compound `CNC(=O)c1c(-c2ccc(F)cc2)oc2cc(N(C)S(C)(=O)=O)c(-c3ccnc(-c4cc5c(C#N)cccc5[nH]4)c3)cc12` [Compound 233], the IC50 in the assay on HCV replicon genotype 1a worked out at 0.1 nM; with HCV replicon genotype 1b, 0.4 nM.

As to `CNC(=O)c1c(-c2ccc(F)cc2)oc2cc(N(C)S(C)(=O)=O)c(-c3cncc(-c4cc5ccccc5[nH]4)n3)cc12` [Compound 113], the concentration for half-maximal inhibition (IC50) in the assay with HCV replicon genotype 1a is 0.3 nM; in the assay on HCV replicon genotype 1b it was 0.8 nM.

Take `CNC(=O)c1c(-c2ccc(F)cc2)oc2cc(N(C)S(C)(=O)=O)c(-c3ccc(OC)c(-c4cc5ccccn5n4)n3)cc12` [Compound 254, 2-(4-fluorophenyl)-5-(5-methoxy-6-(pyrazolo[1,5-a]pyridin-2-yl)pyridin-2-yl)-N-methyl-6-(N-methylmethylsulfonamido)benzofuran-3-carboxamide]: the IC50 in the assay with HCV replicon genotype 1a worked out at 214 nM; with HCV replicon genotype 1b, 26 nM.

In the case of `CNC(=O)c1c(-c2ccc(F)cc2)oc2cc(N(C)S(C)(=O)=O)c(-c3nc(-c4cc5ccccc5[nH]4)c(OC)cc3OC)cc12` [Compound 224], the IC50 in the assay on HCV replicon genotype 1a was found to be 99 nM; in the assay on HCV replicon genotype 1b it was 31 nM.

Turning to `CNC(=O)c1c(-c2ccc(F)cc2)oc2cc(N(C)S(C)(=O)=O)c(-c3cnc(OC)c(-c4nc5c(o4)CCCC5(F)F)c3)cc12` [Compound 94], the IC50 was found to be 0.8 nM in the assay with HCV replicon genotype 1a and 1.9 nM in the assay with HCV replicon genotype 1b.

Take `CNC(=O)c1c(-c2ccc(F)cc2)oc2cc(N(C)S(C)(=O)=O)c(-c3c[nH]c(=O)c(-c4nc5c(F)cccc5o4)c3)cc12` [Compound 159]: the IC50 came out at 0.8 nM with HCV replicon genotype 1a and 1.3 nM in the assay with HCV replicon genotype 1b.

Consider `CNC(=O)c1c(-c2ccc(F)cc2)oc2cc(N(C)S(C)(=O)=O)c(-c3cc(-c4cc5c(F)cccc5[nH]4)ncc3Cl)cc12` [Compound 292], for which the IC50 came to 12 nM with HCV replicon genotype 1a and 13 nM with HCV replicon genotype 1b.

For the compound `CNC(=O)c1c(-c2ccc(F)cc2)oc2cc(N(C)S(C)(=O)=O)c(-c3cc(-c4cc5ccccc5[nH]4)nc(OC)n3)cc12` [Compound 150, 5-(6-(1H-indol-2-yl)-2-methoxypyrimidin-4-yl)-2-(4-fluorophenyl)-N-methyl-6-(N-methylmethylsulfonamido)benzofuran-3-carboxamide], the IC50 in the assay on HCV replicon genotype 1a is 3.2 nM; with HCV replicon genotype 1b, 5.1 nM.

With `CNC(=O)c1c(-c2ccc(F)cc2)oc2cc(N(C)S(C)(=O)=O)c(-c3cnnc(-c4cc5c(C#N)cccc5[nH]4)c3)cc12` [Compound 260], the IC50 in the assay on HCV replicon genotype 1a is 0.7 nM; in the assay with HCV replicon genotype 1b, 1.1 nM.

On to `CNC(=O)c1c(-c2ccc(F)cc2)oc2cc(N(C)S(C)(=O)=O)c(-c3cnnc(-c4cc5ncccc5[nH]4)c3)cc12` [Compound 286], for which the IC50 was 17 nM in the assay on HCV replicon genotype 1a and 5 nM in the assay with HCV replicon genotype 1b.

(Values after patent publication US9549917B2, “Heterocyclic-substituted benzofuran derivatives and methods of use thereof for the treatment of viral diseases” (priority 2011, dated 2017).)
